What was measured:
[1] = test system: alveolar bone of rats (artificial periodontal pockets); assay: Regeneration of the periodontal tissue in rats (Example 3); format: in vivo, Wister male rats; settings: approx. 0.1 ml injected into gingival crevices everyday, up to 3 weeks; light microscope
Protocol: Next, to confirm the effect of the prepared polyphosphate-collagen complex in regenerating the periodontal tissue, an experiment for the regeneration of the periodontal tissue was performed using rats. Wister male rats (8 weeks old; 18 rats in total) were anesthetized. Then, using a ½ round bar, approximately 2 mm portions were removed from the buccal alveolar bone crest of the mandibular first and second molars, and artificial periodontal pockets (gingival crevices) were formed. In the treated group (9 rats), approximately 0.1 ml of the polyphosphate-collagen complexes prepared in Example 2 was injected using a syringe into the thus formed gingival crevices. In the comparison group (9 rats), only the collagen was injected. The injection procedure was performed everyday from the day following the operation to prepare the gingival crevice, and continued for 3 weeks at the longest.
The rats treated for a certain period were euthanized by inhalation anesthesia (enflurane), and the tissues were fixed by perfusion fixation. Perfusion fixation was performed by letting 300 ml of physiological saline and then 10% neutral buffered formalin solution (pH 7.4, 500 ml) to flow through the blood vessel. […] In addition, the area of the regenerated alveolar bone was measured as the area of bone formation by calculating the sum of the bone areas in the sections with image processing.

[2] = test system: alveolar bone of rats (artificial periodontal pockets); assay: Regeneration of the periodontal tissue in rats, influence of polyphosphate chain length (Example 4); format: in vivo, Wister male rats; settings: measured at 15 days after operation; for area of the regenerated alveolar bone: approx. 0.1 ml injected into gingival crevices once a day for 14 days
Protocol: Next, an experiment of the regeneration of the periodontal tissue in rats was performed using the 3 prepared types of polyphosphate-collagen complexes. In a manner similar to Example 3, Wister male rats (8 weeks old) were anesthetized. Then, using a ½ round bar, approximately 2 mm portions were removed from the buccal alveolar bone crest of the mandibular first and second molars, and artificial periodontal pockets (gingival crevices) were formed. In the treated group, approximately 0.1 ml of either one type of the above polyphosphate-collagen complexes was injected using a syringe into the thus formed gingival crevices. The treated groups were: treated group 1 that was treated with the polyphosphate-collagen complex containing polyphosphates having an average chain length of 15; treated group 2 that was treated with the polyphosphate-collagen complex containing polyphosphates having an average chain length of 35; and treated group 3 that was treated with the polyphosphate-collagen complex containing polyphosphates having an average chain length of 75. The comparison groups were: comparison group 1 that was treated only with collagen and comparison group 2 that was treated with a mixed solution of a sodium phosphate buffer and collagen. Injection (approximately 0.1 ml) into the gingival crevices of each group was performed similarly to that for the treated groups. For all the groups, 3 rats were used per group. In addition, the injection was performed once a day and everyday from the day following the operation to prepare the gingival crevice, and was continued for 14 days.
After the above treatment, at 15 days after the operation to prepare the gingival crevice, tissue sections (samples) were prepared in a manner similar to that in Example 3 from the rats of each group, and then the area of the formed alveolar bone was measured. The areas of the regenerated alveolar bones as measured for rat individuals included in 3 treated groups and 2 comparison groups are as shown in Table 1.

## collagen [Comparison group 1]
[1]
  staining of the tissues: regeneration of alveolar bone (FIG. 2): no increase was observed in the alveolar bone
[2]; Individual 1
  area of the regenerated alveolar bone: 0.5422 mm^2
[2]; Individual 2
  area of the regenerated alveolar bone: 0.5909 mm^2
[2]; Individual 3
  area of the regenerated alveolar bone: 0.6569 mm^2
[2]; average of 3 rats per group, approx. 0.1 ml injected once a day for 14 days
  area of the regenerated alveolar bone, Average: 0.5967 mm^2

From patent US20040002444A1, “Polyphosphate-water soluble collagen complexes and process for preparation thereof” (Toshikazu SHIBA, priority 2002, published 2004)
